According to ChEMBL document CHEMBL2203093, “EC144 is a potent inhibitor of the heat shock protein 90” (J Med Chem, 2012):
Each block holds one molecule with its values, some of them ahead of it.

Assays:
[1] = Apparent permeability from apical to basolateral side of human Caco2 cells; assay type: ADME, cell-based; details: Caco-2
[2] = Intrinsic clearance in human liver microsomes; assay type: ADME, Microsome; details: read-out: CLH
[3] = Initial Cmax in CD-1 mouse at 5 mg/kg, iv; assay type: ADME, organism-based; parameters: dose 5 mg/kg, route intravenous; details: in vivo
[4] = Half life in CD-1 mouse at 5 mg/kg, iv; assay type: ADME, organism-based; parameters: dose 5 mg/kg, route intravenous; details: in vivo
[5] = Intrinsic clearance in rat liver microsomes; assay type: ADME, Microsome; details: read-out: CLH
[6] = system: Mus musculus; experiment: Dose normalized AUC in CD-1 mouse at 5 mg/kg, iv; assay type: ADME, organism-based; parameters: dose 5 mg/kg, route intravenous; details: in vivo
[7] = AUC in CD-1 mouse at 5 mg/kg, iv; assay type: ADME, organism-based; parameters: dose 5 mg/kg, route intravenous; details: plasma
[8] = system: Brain; experiment: Drug uptake in human NCI-N87 cell xenografted mouse brain at 6 to 12 mg/kg, po administered as a single dose at 6 to 24 hrs; assay type: ADME, organism-based; parameters: route oral; details: in vivo
[9] = Tmax in DBA1 mouse plasma at 5 mg/kg, po; assay type: ADME, organism-based; parameters: dose 5 mg/kg, route oral
[10] = AUC (infinity) in DBA1 mouse plasma at 5 mg/kg, po; assay type: ADME, organism-based; parameters: dose 5 mg/kg, route oral, time infinity
[11] = system: NCI-N87; experiment: Drug uptake in human NCI-N87 cells xenografted in mouse at 6 to 12 mg/kg, po administered as a single dose at 6 to 24 hrs; assay type: ADME, organism-based; parameters: route oral; details: in vivo
[12] = AUC in CD-1 mouse at 25 mg/kg, po; assay type: ADME, organism-based; parameters: dose 25 mg/kg, route oral; details: plasma
[13] = Toxicity in po dosed human N87 cell xenografted athymic mouse administered as qd for 5 days per week for 4 weeks; assay type: organism-based, NCI-N87; details: in vivo
[14] = Half life in CD-1 mouse at 25 mg/kg, po; assay type: ADME, organism-based; parameters: dose 25 mg/kg, route oral; details: in vivo
[15] = AUC (infinity) in DBA1 mouse spleen at 5 mg/kg, po; assay type: ADME, organism-based; parameters: dose 5 mg/kg, route oral, time infinity
[16] = system: Serum; experiment: Drug uptake in human NCI-N87 cell xenografted mouse serum at 6 to 12 mg/kg, po administered as a single dose at 6 to 24 hrs; assay type: ADME, organism-based; parameters: route oral; details: in vivo
[17] = Initial Cmax in CD-1 mouse at 25 mg/kg, po; assay type: ADME, organism-based; parameters: dose 25 mg/kg, route oral; details: in vivo
[18] = Cmax in DBA1 mouse lymph nodes at 5 mg/kg, po; assay type: ADME, organism-based, Lymph node; parameters: dose 5 mg/kg, route oral
[19] = Half life in DBA1 mouse lymph nodes at 5 mg/kg, po; assay type: ADME, organism-based, Lymph node; parameters: dose 5 mg/kg, route oral
[20] = Tmax in DBA1 mouse brain at 5 mg/kg, po; assay type: ADME, organism-based; parameters: dose 5 mg/kg, route oral
[21] = Half life in DBA1 mouse plasma at 5 mg/kg, po; assay type: ADME, organism-based; parameters: dose 5 mg/kg, route oral
[22] = system: Mus musculus; experiment: Dose normalized AUC in CD-1 mouse at 25 mg/kg, po; assay type: ADME, organism-based; parameters: dose 25 mg/kg, route oral; details: in vivo
[23] = Intrinsic clearance in mouse liver microsomes; assay type: ADME, Microsome; details: read-out: CLH
[24] = system: Spleen; experiment: Drug uptake in human NCI-N87 cell xenografted mouse spleen at 6 to 12 mg/kg, po administered as a single dose at 6 to 24 hrs; assay type: ADME, organism-based; parameters: route oral; details: in vivo
[25] = Tmax in DBA1 mouse lymph nodes at 5 mg/kg, po; assay type: ADME, organism-based, Lymph node; parameters: dose 5 mg/kg, route oral
[26] = Cmax in DBA1 mouse spleen at 5 mg/kg, po; assay type: ADME, organism-based; parameters: dose 5 mg/kg, route oral
[27] = Tmax in CD-1 mouse at 25 mg/kg, po; assay type: ADME, organism-based; parameters: dose 25 mg/kg, route oral; details: in vivo
[28] = Toxicity in po dosed mouse administered as a single dose; assay type: organism-based; details: in vivo
[29] = AUC (infinity) in DBA1 mouse lymph nodes at 5 mg/kg, po; assay type: ADME, organism-based, Lymph node; parameters: time infinity, dose 5 mg/kg, route oral
[30] = Cmax in DBA1 mouse plasma at 5 mg/kg, po; assay type: ADME, organism-based; parameters: dose 5 mg/kg, route oral
[31] = AUC (infinity) in DBA1 mouse brain at 5 mg/kg, po; assay type: ADME, organism-based; parameters: dose 5 mg/kg, route oral, time infinity
[32] = Half life in DBA1 mouse brain at 5 mg/kg, po; assay type: ADME, organism-based; parameters: dose 5 mg/kg, route oral
[33] = Half life in DBA1 mouse spleen at 5 mg/kg, po; assay type: ADME, organism-based; parameters: dose 5 mg/kg, route oral
[34] = Cmax in DBA1 mouse brain at 5 mg/kg, po; assay type: ADME, organism-based; parameters: dose 5 mg/kg, route oral
[35] = Tmax in CD-1 mouse at 100 mg/kg, po; assay type: ADME, organism-based; parameters: dose 100 mg/kg, route oral; details: in vivo
[36] = system: Mus musculus; experiment: Dose normalized AUC in CD-1 mouse at 100 mg/kg, po; assay type: ADME, organism-based; parameters: dose 100 mg/kg, route oral; details: in vivo
[37] = Initial Cmax in CD-1 mouse at 100 mg/kg, po; assay type: ADME, organism-based; parameters: dose 100 mg/kg, route oral; details: in vivo

Papp A→B [1]: 1.9 ×10⁻⁶ cm/s
CLint scaled [2]: 39 mL/min/kg
Cmax [3]: 2180 ng/mL
half-life [4]: 396 min
CLint scaled [5]: 219 mL/min/kg
AUC/dose [6]: 481 ng·h/mL/mg/kg
AUC [7]: 2410 ng·h/mL
Compound: CCNC(=O)c1noc(-c2cc(C(C)C)c(O)cc2O)c1-c1ccc(CN2CCOCC2)cc1 [LUMINESPIB]

Compound: COc1c(C)cnc(Cn2cc(C#CCC(C)(C)O)c3c(Cl)nc(N)nc32)c1C
Drug uptake [8]: Active
Papp A→B [1]: 34.7 ×10⁻⁶ cm/s
Tmax [9]: 4.98 min
AUC(0-inf) [10]: 2120 ng·h/mL
Drug uptake [11]: Active
CLint scaled [2]: 119 mL/min/kg
AUC [12]: 4420 ng·h/mL
MTD at 4 weeks [13]: 10 mg/kg
half-life [14]: 90 min
AUC(0-inf) [15]: 8160 ng·h/mL
Drug uptake [16]: Active
Cmax [17]: 1560 ng/mL
Cmax [18]: 2140 ng/mL
CLint scaled [5]: 276 mL/min/kg
half-life [19]: 96 min
Tmax [20]: 30 min
half-life [21]: 72 min
AUC/dose [22]: 177 ng·h/mL/mg/kg
CLint scaled [23]: 727 mL/min/kg
Drug uptake [24]: Active
Tmax [25]: 1 h
Cmax [26]: 1890 ng/mL
Tmax [27]: 30 min
MTD [28]: 30 mg/kg
AUC(0-inf) [29]: 5190 ng·h/mL
Cmax [30]: 835 ng/mL
AUC(0-inf) [31]: 4710 ng·h/mL
half-life [32]: 126 min
half-life [33]: 120 min
Cmax [34]: 1450 ng/mL

Compound: C=CCNC1=C2C[C@@H](C)C[C@H](OC)[C@H](O)[C@@H](C)/C=C(\C)[C@H](OC(N)=O)[C@@H](OC)/C=C\C=C(/C)C(=O)NC(=CC1=O)C2=O [TANESPIMYCIN]
MTD [28]: 60 mg/kg

Compound: COc1c(C)cnc(Cn2cnc3c(Cl)nc(N)nc32)c1C [BIIB021]
Papp A→B [1]: 20 ×10⁻⁶ cm/s
Tmax [35]: 4.98 min
AUC/dose [36]: 48 ng·h/mL/mg/kg
Cmax [37]: 10000 ng/mL

Papp A→B [1]: 1.1 ×10⁻⁶ cm/s
CLint scaled [2]: 54 mL/min/kg
AUC [12]: 8520 ng·h/mL
half-life [14]: 174 min
Cmax [17]: 1720 ng/mL
CLint scaled [5]: 54 mL/min/kg
AUC/dose [22]: 341 ng·h/mL/mg/kg
CLint scaled [23]: 301 mL/min/kg
Tmax [27]: 60 min
Compound: CC1(C)CC(=O)c2c(C(F)(F)F)nn(-c3ccc(C(N)=O)c(N[C@H]4CC[C@H](O)CC4)c3)c2C1 [SNX-2112]
